In the assay the test system is ZmCkx2. Description: ZmCkx2 expression in leaf discs incubated with benzyladenine (Northern and Lynx analyses). In kind it is cell-based, maize. The settings on record: leaf discs incubated with 10 μM benzyladenine. The procedure:
Northern analysis of ZmCkx2 was performed using ExpressHyb™ Hybridization Solution from BD Biosciences Clontech (Palo Alto, Calif.) with a final wash in 0.1×SSC, 0.1% SDS at 65° C. for 20 minutes.
A tight relationship exists between Lynx and Northern data for ZmCkx2. This provided confidence when the Lynx database was mined for ZmCkx2 expression in various plant parts. […] Similarly, Northern data indicated strongest signals from ear leaf and midrib tissues; intermediate levels in tassel, husk leaves, young leaves, stalk, and pulvini; and lower levels in cob and ovary tissue. Little to no ZmCkx2 activity was detected by Northern analysis of roots or silks.

On to `c1ccc(CNc2ncnc3nc[nH]c23)cc1` [benzyladenine], for which the “increase in ZmCkx2 expression” value is listed as 2 fold.

For the origin of these results see patent publication US8222483B2, “Cytokinin oxidase sequences and methods of use” (Pioneer Hi Bred International Inc, priority 2004, dated 2012).
